# Assay results published in US7652070B2, “Treatment method for MMP-implicated pathologies” (priority 2007, dated 2010).
# Columns and labels:
# cystinosis patients = conditions: cited from earlier work
# MMP-9 = MMP-9 (Homo sapiens, UniProt P14780); assay: Breakdown/inhibition of MMP-9 by cysteamine analyzed by zymography; format: biochemical; conditions: Michaelis-Mentin kinetics, FIG. 1
# Text: FIG. 1 is a table illustrating inhibition of MMP-9 by cysteamine.
# FIG. 1 illustrates the result of a laboratory test showing the breakdown of MMP-9 as analyzed by zymography. Because enzymes are structure specific, it can be inferred that there is inhibition of MMP-9 by cysteamine. It is believed that cysteamine inactivates MMP by breaking an important sulfur bond, causing the enzyme to unfold.
# [1] = system: pre-renal transplant cystinotics; conditions: cited from earlier work
# Chain of MMP-9 (P14780 94-707): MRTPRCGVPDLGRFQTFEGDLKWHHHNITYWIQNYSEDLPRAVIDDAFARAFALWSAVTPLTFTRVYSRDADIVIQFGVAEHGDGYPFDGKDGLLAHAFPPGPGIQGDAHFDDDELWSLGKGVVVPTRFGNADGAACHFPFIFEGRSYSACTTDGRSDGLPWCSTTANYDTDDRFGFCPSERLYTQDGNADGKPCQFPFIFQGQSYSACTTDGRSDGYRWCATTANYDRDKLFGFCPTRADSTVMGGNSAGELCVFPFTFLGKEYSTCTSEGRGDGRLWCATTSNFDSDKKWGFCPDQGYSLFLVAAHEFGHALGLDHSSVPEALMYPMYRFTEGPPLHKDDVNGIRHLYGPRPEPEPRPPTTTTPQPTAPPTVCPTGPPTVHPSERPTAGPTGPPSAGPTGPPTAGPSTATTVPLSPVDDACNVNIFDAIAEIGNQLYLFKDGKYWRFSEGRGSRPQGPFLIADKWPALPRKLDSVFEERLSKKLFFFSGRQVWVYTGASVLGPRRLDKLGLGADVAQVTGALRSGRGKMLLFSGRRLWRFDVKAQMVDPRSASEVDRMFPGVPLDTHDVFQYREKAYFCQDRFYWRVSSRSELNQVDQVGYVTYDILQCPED
SMILES,"efficacy of eye drop concentration (cystinosis patients; concentration 0.1%, cystinosis patients)","toxicity of eye drops (cystinosis patients; eye drop 0.5%, preserved with benzalkonium, up to 12 times per day, slight burning sensation possible)",Ki (MMP-9),effect of cysteamine therapy on growth and renal function [1],toxicity of cysteamine therapy [1]
Cl.NCCS [Cysteamine {HCl}],effective,no toxicity has not been observed,,,
"NCCS [cysteamine, Cysteamine (HSCH2CH2NH2)]",,,530 ± 140 µM,improved growth and stabilized renal function,without substantial toxicity
